The text below walks through data of patent US6680336B2, “Cyclic AMP-specific phosphodiesterase inhibitors” (ICOS Corporation, priority 1999, dated 2004).

Where two headings read alike, the source gives them in different places.

Data set [1] deals with TNFα secretion in human peripheral blood lymphocytes. Nature of the data set: Lipopolysaccharide-stimulated TNFα release from human peripheral blood lymphocytes. The format is cell-based. Conditions: for EC50: Lymphocyte, LPS-stimulated TNFα release from human PBL. The method, then: The compounds of structural formula (II) also were tested for an ability to reduce TNFα secretion in human peripheral blood lymphocytes. The ability to reduce TNFα secretion is related to the EC50 values i.e., the effective concentration pf the compound capable of inhibiting 50% of the total TNFα).
To assess the ability of a compound to reduce TNFα secretion in human peripheral blood lymphocytes (PBL), the following tests were performed.
Heparinized blood (approximately 30 mL) drawn from human volunteers was mixed 1:1 with Dulbecco's modified phosphate-buffered saline. This mixture was mixed 1:1 with HISTOPAQUE® and centrifuged at 1,500 rpm at room temperature without braking in the swinging bucket of a Beckman model TJ6 centrifuge. Erythrocytes were centrifuged to the bottom of the tubes, and serum remained at the surface of the tubes. A layer containing lymphocytes sedimented between the serum and HISTOPAQUE® layers, and was removed by aspiration to a fresh tube. The cells were quantified and adjusted to […] and a 100 μL aliquot is placed into the wells of a 96 well plate. Test compounds and RPMI media (Gibco/BRL Life Sciences) are added to each of the wells 15 minutes prior to addition of bacterial LPS ([…]). The mixture was allowed to incubate for 20 hours at 37° C. in a humidified chamber. The cells then were separated by centrifuging at 800 rpm for 5 minutes at room temperature. An aliquot of 180 μL of supernatant was transferred to a new plate for determination of TNFα concentration. TNFα protein in the cell supernatant fluids was measured using a commercially available enzyme-linked immunosorbent assay (ELISA) (CYTOSCREEN® Immunoassay Kit from Biosource International).
The cell-based assay provided the following results for various pyrrolidine compounds of the present invention. The EC50 values (i.e., effective concentration of the compound capable of inhibiting 50% of the total TNFα) illustrate the ability of the present compounds to inhibit LPS-stimulated TNFα release from human PBL.

Data set [2] has as its target T1, recombinant human PDE4.
T1 construct: PDE4 IC50; other: human recombinant PDE4
Nature of the data set: PDE4 inhibition, charcoal separation [32P]cAMP phosphodiesterase assay. Format: biochemical. The method, then:
The compounds of structural formula (II) were tested for an ability to inhibit PDE4. The ability of a compound to inhibit PDE4 activity is related to the IC50 value for the compound, i.e., the concentration of inhibitor required for 50% inhibition of enzyme activity. The IC50 value for compounds of structural formula (II) were determined using recombinant human PDE4.
Recombinant production of human PDE1B, PDE2, PDE4A, PDE4B, PDE4C, PDE4D, PDE5, and PDE7 was carried out similarly to that described in Example 7 of U.S. Pat. No. 5,702,936, incorporated herein by reference, except that the yeast transformation vector employed, which is derived from the basic ADH2 plasmid described in Price et al., Methods in Enzymology, 185, pp. 308-318 (1990), incorporated yeast ADH2 promoter and terminator sequences and the Saccharomyces cerevisiae host was the protease-deficient strain BJ2-54 deposited on Aug. 31, 1998 with the American Type Culture Collection, Manassas, Va., under accession number ATCC 74465. Transformed host cells were grown in 2×SC-leu medium, pH 6.2, with trace metals, and vitamins. After 24 hours, YEP medium-containing glycerol was added to a final concentration of 2×YET/3% glycerol. Approximately 24 hr later, cells were harvested, washed, and stored at −70° C.
Phosphodiesterase activity of the preparations was determined as follows. PDE assays utilizing a charcoal separation technique were performed essentially as described in Loughney et al. (1996). In this assay, PDE activity converts [32P]cAMP or [32P]cGMP to the corresponding [32P]5′-AMP or [32P]5′-GMP in proportion to the amount of PDE activity present. The [32P]5′-AMP or [32P]5′-GMP then was quantitatively converted to free [32P]phosphate and unlabeled adenosine or guanosine by the action of snake venom 5′-nucleotidase. […] The assay was performed at 30° C. in a 100 μL reaction mixture containing (final concentrations) 40 mM Tris HCl (pH 8.0), 1 μM ZnSO4, 5 mM MgCl2, and 0.1 mg/mL bovine serum albumin (BSA). Alternatively, in assays assessing PDE1-specific activity, incubation mixtures further incorporated the use of 0.1 mM CaCl2 and 10 μg/mL calmodulin. PDE enzyme was present in quantities that yield <30% total hydrolysis of substrate (linear assay conditions). The assay was initiated by addition of substrate (1 mM [32P]cAMP or cGMP), and the mixture was incubated for 12 minutes. Seventy-five (75) μg of Crotalus atrox venom then was added, and the incubation was continued for 3 minutes (15 minutes total). The reaction was stopped by addition of 200 μL of activated charcoal (25 mg/mL suspension in 0.1 M […], pH 4). After centrifugation (750×g for 3 minutes) to sediment the charcoal, a sample of the supernatant was taken for radioactivity determination in a scintillation counter and the PDE activity was calculated.
Inhibitor analyses were performed similarly to the method described in Loughney et al., J. Biol. Chem., 271, pp. 796-806 (1996), except both cGMP and cAMP were used, and substrate concentrations were kept below 32 nM, which is far below the Km of the tested PDEs.

The subject of another data set is female Balb/c mice. Nature of the data set: Combined mouse endotoxin-stimulated TNFα release and locomotor activity assay (mobility). Format: in vivo. The method, then:
The purpose of this study was to determine the efficacy of PDE4 inhibitors in vivo in an LPS mouse model together with a determination with respect to central nervous system (CNS) side-effects manifested by a decrease in spontaneous mobility.
The test animals were female Balb/c mice, having an average weight of about 20 g. […] Individual dose volumes (about 150 μL) were adjusted based on the body weights measured. One hour later, 5 mg/kQ LPS in a final volume of 200 μL was injected via the tail vein to each animal. Ninety minutes following the LPS treatment, the animals were bled and serum samples were collected before being stored at −70° C. until assayed.
Movement of the X-Y plane, or rearing up on the hind legs, was quantified by counting the number of “light-beam” crosses per unit of time. A decrease in the number of activity events is directly proportional to the mobility or immobilization of the animal. The quantitative scoring correlated well with the subjective measurements described above.
The following table summarizes the mouse locomotor activity assay as mobility (% activity) obtained by the above-described method: […]

For data set [3] the following is noted: in vivo; cited from earlier work.
For data set [4], the system named is recombinant human PDE4. Conditions: reported value; read-out: IC50 with respect to inhibiting recombinant human PDE4; cited from earlier work.

One may read the EC50 as the concentration giving half of the maximal effect. What is called IC50 is the concentration at which inhibition is half-maximal.

`CNC(C)[C@]1(C)CN(C(=O)OC)C[C@H]1c1ccc(OC)c(OC2CCCC2)c1` (mixture of isomers) [Example 19, Methyl (3S,4S)-4-(3-cyclopentyloxy-4-methoxyphenyl)-3-methyl-3-[(methylamino)ethylpyrrolidine Carboxylate] came in with an EC50 in data set [1] of 59 nM. The IC50 on recombinant human PDE4 [2] is 51.7 nM. The “Mobility (% activity at 50 mg/kg dose)” value in the data set on female Balb/c mice came to 145%.
Regarding `COc1ccc([C@@H]2CNC(=O)C2)cc1OC1CCCC1` (single isomer, unassigned) [(−)-enantiomer of rolipram], in data set [3], the “Emetic potential relative to the (+)-enantiomer” value was “about ten-fold more emetic than the (+)-enantiomer”.
Consider `COc1ccc([C@@H]2CN(Cc3ccccc3)C[C@@]2(C)C(C)N)cc1OC1CCCC1` (single isomer, unassigned) [Example 9], for which the 50% effective concentration (EC50) in data set [1] stood at 609 nM. Moreover, at recombinant human PDE4 [2], the half-maximal inhibitory concentration (IC50) came to 57.5 nM. Also, the “Mobility (% activity at 50 mg/kg dose)” value in the data set on female Balb/c mice came to 55%.
The like results for `COc1ccc(C2CN(Cc3ccccc3)C[C@@]2(C)C(C)N)cc1OC1CCCC1` (stereo partly shown) [Example 20] were, in that order, 198 nM, 22 nM and 93%.
Turning to `COc1ccc(C2CNC(=O)C2)cc1OC1CCCC1` (stereo not shown) [Rolipram, reference compound], the “LPS-induced TNFα secretion from human lymphocytes” value in data set [1] (preliminary experiments) was “inhibit LPS-induced TNFα secretion from human lymphocytes in a dose-dependent fashion”. The IC50 in the data set with recombinant human PDE4 [4] was around 200 nM.
For the molecule `COC(=O)N1CC(c2ccc(OC)c(OC3CCCC3)c2)C(C)(C(C)=O)C1` (stereo not shown) [structural formula (I)], in the data set with recombinant human PDE4 [4], the half-maximal inhibitory concentration (IC50) is around 2 nM.
